Results taken from patent publication US10294246B2, “Substituted boronic acids and boronate esters as immunoproteasome inhibitors” (MERCK PATENT GMBH, priority 2014, dated 2019).

Columns and labels:
[1] = target: LMP7 subunit of the immunoproteasome (Homo sapiens (Human), UniProt P28062); details: Singh et al., Br. J. Hematology 152(2): 155-163; cited from earlier work
[2] = target: human immunoproteasome (LMP7) (Homo sapiens (Human), UniProt P28062); test: Determination of LMP7 activity (fluorescence intensity assay, Suc-LLVY-AMC); assay type: biochemical; details: for Selectivity LMP7 vs Beta5: LMP7 versus Beta5; for IC50: purified human immunoproteasome 0.25 nM, Suc-LLVY-AMC 40 μM
Summary of the method: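 0.25 nM purified human immunoproteasome preincubated 20 min at 25 °C with serially diluted compounds in 50 mM Tris pH 7.4, 0.03% SDS, 1 mM EDTA, 1% DMSO. Reaction started with 40 μM Suc-LLVY-AMC, run 60 min at 37 °C. Fluorescence read at ex 350/em 450 nm.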

[3] = target: human constitutive proteasome (Beta5) (Homo sapiens (Human), UniProt P28074); test: Determination of Beta5 activity (fluorescence intensity assay, Suc-LLVY-AMC); assay type: biochemical; details: purified human constitutive proteasome 1.25 nM, Suc-LLVY-AMC 40 μM
Summary of the method: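 Purified constitutive proteasome (1.25 nM) was preincubated with compounds 20 min at 25 °C in 50 mM Tris pH 7.4, 0.03% SDS, 1 mM EDTA, 1% DMSO. Suc-LLVY-AMC (40 μM) was then added for 60 min at 37 °C. AMC fluorescence was read at ex 350/em 450 nm.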

| Selectivity LMP7 vs Beta5 [2] | IC50 [2] | IC50 [3] | SMILES | selectivity for the LMP7 subunit of the immunoproteasome [1] |
| --- | --- | --- | --- | --- |
|  |  |  | CC1=C(C(=O)N[C@H](C)C(=O)N[C@@H](Cc2c[nH]c3ccccc23)C(=O)N[C@@H](Cc2ccccc2)C(=O)[C@@]2(C)CO2)Cc2ccccc21 [PR-924] | 100 fold |
| +++ (50 ≤ Selectivity < 70) | < 0.05 µM | 0.5 to 5 µM | O=C(Cc1ccncc1)N[C@@H](Cc1coc2ccccc12)B(O)O [Compound No. 19, [(1R)-2-(benzofuran-3-yl)-1-[[2-(4-pyridyl)acetyl]amino]ethyl]boronic acid] |  |
| ++ (10 ≤ Selectivity < 50) | < 0.05 µM | > 5 µM | CC(=O)Nc1ccc(CC(=O)N[C@@H](Cc2ccc(C)cc2)B(O)O)cc1 [Compound No. 21, [(1R)-1-[[2-(4-acetamidophenyl)acetyl]amino]-2-(p-tolyl)ethyl]boronic acid] |  |
| +++++ (Selectivity ≥ 100) | < 0.05 µM | > 5 µM | CO[C@@H](C(=O)N[C@@H](CC1COc2c(C)cccc21)B(O)O)c1ccccc1 (stereo partly drawn) [Compound No. 93, [(1R)-1-[[(2R)-2-methoxy-2-phenyl-acetyl]amino]-2-(7-methyl-2,3-dihydrobenzofuran-3-yl)ethyl]boronic acid] |  |
| +++++ (Selectivity ≥ 100) | 0.05 to 0.5 µM | > 5 µM | COCC(=O)Nc1ccc(CC(=O)N[C@@H](Cc2ccc(C)cc2C)B(O)O)cc1 [Compound No. 47, [(1R)-2-(2,4-dimethylphenyl)-1-[[2-[4-[(2-methoxyacetyl)amino]-phenyl]acetyl]amino]ethyl]boronic acid] |  |
| ++++ (70 ≤ Selectivity < 100) |  | 0.05 to 0.5 µM | CC(=O)Nc1cccc(CC(=O)N[C@@H](Cc2coc3ccccc23)B(O)O)c1 [Compound No. 32, [(1R)-1-[[2-(3-acetamidophenyl)acetyl]amino]-2-(benzofuran-3-yl)ethyl]boronic acid] |  |
| +++++ (Selectivity ≥ 100) | < 0.05 µM | 0.05 to 0.5 µM | CCOc1ccc(CC(=O)N[C@@H](Cc2coc3ccccc23)B(O)O)nc1 [Compound No. 13, [(1R)-2-(benzofuran-3-yl)-1-[[2-(5-ethoxy-2-pyridyl)acetyl]amino]-ethyl]boronic acid] |  |
